Source: ChEMBL document CHEMBL1165847, “Urotensin-II receptor modulators as potential drugs” (J Med Chem, 2010)
Structures can show the parent of a compound that is named as a salt. Each block holds one molecule with its values, some of them ahead of it. Calls of active or inactive are those of the source. The calls are words filed in the database; no cut-off is given here. Where a SMILES comes first, the peptide text is derived from it.

Experiments:
Urotensin-2 receptor [1] = target: T1, Urotensin-2 receptor (Rattus norvegicus, UniProt P49684); test: Agonist activity at rat urotensin 2 receptor expressed in CHO cells assessed as calcium mobilization at 1000 nM by FLIPR; type: functional, cell-based
T1 sequence (P49684 whole entry): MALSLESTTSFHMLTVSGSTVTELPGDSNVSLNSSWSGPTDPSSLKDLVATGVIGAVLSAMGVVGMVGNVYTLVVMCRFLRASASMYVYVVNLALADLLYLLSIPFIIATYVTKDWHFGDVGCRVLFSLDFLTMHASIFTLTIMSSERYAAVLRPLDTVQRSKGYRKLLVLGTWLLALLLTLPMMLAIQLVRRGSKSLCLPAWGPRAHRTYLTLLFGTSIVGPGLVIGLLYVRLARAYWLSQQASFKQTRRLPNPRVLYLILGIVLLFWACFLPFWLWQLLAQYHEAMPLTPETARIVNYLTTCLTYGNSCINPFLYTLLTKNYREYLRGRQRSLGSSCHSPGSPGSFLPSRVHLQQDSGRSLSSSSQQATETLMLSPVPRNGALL

Urotensin-2 receptor [2] = target: T2, Urotensin-2 receptor (Homo sapiens, UniProt Q9UKP6); test: Binding affinity to human urotensin 2 receptor
T2 sequence (Q9UKP6 whole entry): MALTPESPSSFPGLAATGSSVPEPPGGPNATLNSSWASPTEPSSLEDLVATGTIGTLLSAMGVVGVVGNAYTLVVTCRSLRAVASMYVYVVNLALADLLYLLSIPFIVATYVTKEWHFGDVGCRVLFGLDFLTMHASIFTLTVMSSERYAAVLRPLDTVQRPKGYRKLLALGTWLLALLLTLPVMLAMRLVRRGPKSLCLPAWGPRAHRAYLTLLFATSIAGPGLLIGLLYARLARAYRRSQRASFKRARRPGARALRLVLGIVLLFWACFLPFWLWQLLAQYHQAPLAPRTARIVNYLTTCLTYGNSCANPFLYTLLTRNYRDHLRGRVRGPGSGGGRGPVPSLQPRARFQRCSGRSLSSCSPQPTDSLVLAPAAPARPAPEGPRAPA

[3] = Oral bioavailability in rat; type: ADME, organism-based; details: in vivo
Rattus norvegicus [4] = test: Decrease in urotensin-2-induced temperature of ear pinna in rat ear-flush model at 10 ug/ml, iv for 15 mins; type: functional, organism-based
[5] = target: T3, Urotensin-2 receptor (Rattus norvegicus) (UniProt P49684); test: Antagonist activity at rat urotensin 2 receptor expressed in CHO cells assessed as calcium mobilization at 100 nM by FLIPR; type: functional, cell-based
T3 sequence (whole entry): T1 sequence (P49684 whole entry)

Urotensin-2 receptor [6] = target: T1, Urotensin-2 receptor; test: Agonist activity at rat urotensin 2 receptor expressed in CHO cells assessed as calcium mobilization by FLIPR; type: functional, cell-based
Urotensin-2 receptor [7] = target: T2, Urotensin-2 receptor; test: Agonist activity at human urotensin 2 expressed in CHO cells by FLIPR; type: functional, cell-based
Urotensin-2 receptor [8] = target: T1, Urotensin-2 receptor; test: Displacement of [125I]U2 from rat urotensin 2 receptor expressed in CHO cells; type: cell-based
[9] = target: T3, Urotensin-2 receptor (Rattus norvegicus); test: Antagonist activity at rat urotensin 2 receptor expressed in CHO cells assessed as calcium mobilization at 300 nM by FLIPR; type: functional, cell-based
[10] = target: T3, Urotensin-2 receptor (Rattus norvegicus); test: Agonist activity at rat urotensin 2 receptor expressed in CHO cells assessed as calcium mobilization at 500 nM by FLIPR; type: functional, cell-based
Urotensin-2 receptor [11] = target: T1, Urotensin-2 receptor; test: Binding affinity to rat urotensin 2 receptor
Mus musculus = test: Reduction in atherosclerotic lesion size in Apo-E knockout mouse at 30 mg/kg, po qd for 10 weeks; type: functional; design: scale not given: the % may be the effect or the level left
Urotensin-2 receptor [12] = target: T1, Urotensin-2 receptor; test: Antagonist activity at rat urotensin 2 receptor expressed in CHO cells assessed as calcium mobilization by FLIPR; type: functional, cell-based
Aorta = test: Vasorelaxation activity against urotensin-2-induced contraction in isolated rat aorta assessed as restoration of renal blood flow at 10 mg/kg/hr, iv; type: functional, organism-based
Urotensin-2 receptor [13] = target: T4, Urotensin-2 receptor (Macaca mulatta, UniProt Q8HYC3); test: Binding affinity to monkey urotensin 2 receptor
T4 sequence (Q8HYC3 whole entry): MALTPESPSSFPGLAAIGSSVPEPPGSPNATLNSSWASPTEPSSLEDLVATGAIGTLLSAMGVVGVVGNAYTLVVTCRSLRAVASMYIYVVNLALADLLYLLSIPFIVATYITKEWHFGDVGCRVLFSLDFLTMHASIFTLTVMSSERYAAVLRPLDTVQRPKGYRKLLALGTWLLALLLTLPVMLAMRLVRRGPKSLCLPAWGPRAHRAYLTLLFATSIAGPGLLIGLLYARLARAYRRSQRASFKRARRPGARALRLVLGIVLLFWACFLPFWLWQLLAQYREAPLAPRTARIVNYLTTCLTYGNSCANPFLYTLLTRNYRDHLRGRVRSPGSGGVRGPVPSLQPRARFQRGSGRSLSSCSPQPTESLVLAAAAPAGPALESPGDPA

Urotensin-2 receptor [14] = target: T5, Urotensin-2 receptor (Mus musculus, UniProt Q8VIH9); test: Binding affinity to mouse urotensin 2 receptor
T5 sequence (Q8VIH9 whole entry): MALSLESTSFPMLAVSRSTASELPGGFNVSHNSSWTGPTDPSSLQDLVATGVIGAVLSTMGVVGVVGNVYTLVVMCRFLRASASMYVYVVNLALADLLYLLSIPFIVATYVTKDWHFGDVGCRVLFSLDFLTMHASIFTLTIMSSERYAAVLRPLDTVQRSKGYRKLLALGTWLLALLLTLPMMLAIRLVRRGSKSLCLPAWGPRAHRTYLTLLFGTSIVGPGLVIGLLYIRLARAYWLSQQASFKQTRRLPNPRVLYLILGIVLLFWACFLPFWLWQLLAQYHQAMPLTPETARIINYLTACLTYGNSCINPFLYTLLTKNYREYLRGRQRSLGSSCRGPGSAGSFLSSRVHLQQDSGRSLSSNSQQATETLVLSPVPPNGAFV

Urotensin II receptor = target: T6, Urotensin II receptor (Felis catus, UniProt Q533H1); test: Binding affinity to cat urotensin 2 receptor
T6 sequence (Q533H1 whole entry): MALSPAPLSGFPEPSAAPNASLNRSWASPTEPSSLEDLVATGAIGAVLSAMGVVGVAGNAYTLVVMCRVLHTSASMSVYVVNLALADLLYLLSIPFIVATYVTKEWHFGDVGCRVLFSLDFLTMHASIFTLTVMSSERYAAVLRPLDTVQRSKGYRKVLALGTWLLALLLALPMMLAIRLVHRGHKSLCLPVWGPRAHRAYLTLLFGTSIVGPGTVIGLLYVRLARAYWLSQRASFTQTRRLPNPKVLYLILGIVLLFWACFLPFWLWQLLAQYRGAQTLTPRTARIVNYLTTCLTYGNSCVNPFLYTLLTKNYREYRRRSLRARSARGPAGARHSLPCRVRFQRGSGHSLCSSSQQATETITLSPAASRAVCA

Rattus norvegicus [15] = test: Plasma concentration in rat at 10 mg/kg, iv; type: ADME, organism-based; design: dose 10 mg/kg, route intravenous; details: in vivo

Ki (Urotensin-2 receptor [1]): 600 nM
Ki (Urotensin-2 receptor [2]): 12 nM
Compound: CC(C)[C@H](NC(=O)c1cc2ccccc2s1)C(=O)N[C@H]1CCN(Cc2ccc(OCCCN(C)C)cc2)C1

bioavailability [3]: 10%
inhibition [5]: 74%
Compound: CCN1CCN(c2cccc3c2CN([C@@H](CCCNS(=O)(=O)c2cccs2)c2ccc(OC)c(OC)c2)C3=O)CC1
Activity (Rattus norvegicus [4]): Active

bioavailability [3]: 35%
Ki (Urotensin-2 receptor [6]): 6.3 nM
Ki (Urotensin-2 receptor [7]): 390 nM
Compound: CCN1CCN(c2cccc3c2[C@H]2CCC[C@H](c4ccc(OC)c(OC)c4)N2C3=O)CC1

Ki (Urotensin-2 receptor [8]): 3.2 nM
Ki (Urotensin-2 receptor [7]): 250 nM
Compound: CN(C)CCCOc1ccc(CN2CC[C@H](NC(=O)c3ccc(Cl)c(Cl)c3)C2)cc1

Activity [9]: inactive
Activity [10]: 57%
Ki (Urotensin-2 receptor [8]; cho): < 10000 nM
Compound: CC(=O)N[C@@H](Cc1ccccc1)C(=O)N[C@@H](Cc1c[nH]c2ccccc12)C(=O)N[C@@H](CCCCN)C(=O)N[C@@H](Cc1ccc(O)cc1)C(N)=O (Ac-FWKY-NH2)

bioavailability [3]: 100%
Ki (Urotensin-2 receptor [11]): 121 nM
Compound: CN(C)CCOc1cc(NS(=O)(=O)c2c(Cl)cc(C(F)(F)F)cc2Cl)ccc1Cl [SB611812]
Activity (Mus musculus): 64%

Ki (Urotensin-2 receptor [12]): > 1000 nM
IC50 (Urotensin-2 receptor [2]): 3.6 nM
Ki (Urotensin-2 receptor [2]): 5 nM
Ki (Urotensin-2 receptor [13]): 4 nM
Ki (Urotensin-2 receptor [14]): > 1000 nM
Ki (Urotensin II receptor): > 1000 nM
concentration (Rattus norvegicus [15]): 5 µM
Compound: Cc1cc(NC(=O)NCCN2CCC(O)(Cc3ccccc3)CC2)c2ccccc2n1 [PALOSURAN SULFATE]
Activity (Aorta): Active
